Laboratory results from PMC12259508, “Expediting multiple biological properties of main bioactive compounds of Mentha pulegium L” (AMB Express, 2025).
Values after ≈ are worked out from the molar mass of the structure shown. Where two headings read alike, the source gives them in different places.

What was measured:
[1] = system: Escherichia coli ATCC 25922; assay: MIC and MBC determination, broth microdilution; assay type: cell-based; settings: for MBC: ATCC25922, 24 h, read-out: MBC Escherichia coli
Protocol: (§1) As mentioned before, the minimum inhibitory concentration (MIC) was established using the broth microdilution method. The minimum sample concentration required to destroy the bacteria is indicated by the minimum bactericidal concentration (MBC). The microdilution method, based on MIC determination, was similarly applied. After 24 h of incubation at 37 °C, […] of sample from each tube showing no apparent growth were inoculated on Tryptone Soja agar (Biokar, Beauvais, France). The MBC was determined as the lowest concentration showing no growth on the culture medium.

[2] = system: Listeria monocytogenes ATCC 13932; assay: MIC and MBC determination, broth microdilution; assay type: cell-based; settings: for MBC / MIC: Listeria monocytogenes; for MBC: ATCC13932, 24 h; for MIC Listeria monocytogenes: broth microdilution
Protocol: as §1

[3] = system: Pseudomonas aeruginosa ATCC 27853; assay: MIC and MBC determination, broth microdilution; assay type: cell-based; settings: for MBC: ATCC27853, 24 h, read-out: MBC Pseudomonas aeruginosa
Protocol: as §1

[4] = system: Staphylococcus aureus ATCC 29213; assay: MIC and MBC determination, broth microdilution; assay type: cell-based; settings: for MBC / MIC: Staphylococcus aureus; for MBC: ATCC29213, 24 h; for MIC Staphylococcus aureus: broth microdilution
Protocol: as §1

[5] = molecular target: T1, α-amylase from Bacillus licheniformis (Bacillus licheniformis, UniProt P06278); assay: α-Amylase inhibitory assay (starch/DNS); assay type: biochemical; settings: mean ± SD, triplicate
T1 construct: purchased
Protocol: (§2) The α-glucosidase from Saccharomyces cerevisiae and the α-amylase from Bacillus licheniformis were also obtained from reliable commercial sources. Additional reagents were carefully selected from reputable suppliers. Mueller–Hinton agar was sourced from Biokar in Beauvais, France. All other chemicals used are of analytical grade.
Specifically, 250μL of the sample was mixed with an equal volume of α-amylase (240 U/mL) in a 0.02 M sodium phosphate buffer (SPB) (pH = 6.9). The mixtures were incubated at 37 °C for twenty minutes. Subsequently, 250 µL of a 1% starch solution in a 0.02 M SPB (pH = 6.9) was added to the reaction mixture, and the combination was allowed to sit at 37 °C for 15 min. One milliliter of dinitrosalicylic acid (DNS) was then introduced, and the blend was brought to a boil in a water bath for ten minutes. The reaction mixture was subsequently diluted with 2 mL of distilled water, and the absorbance was measured at 540 nm using an ultraviolet–visible spectrophotometer.

[6] = molecular target: T2, α-glucosidase from Saccharomyces cerevisiae (Saccharomyces cerevisiae, UniProt P53341); assay: α-Glucosidase inhibitory assay (pNPG); assay type: biochemical; settings: mean ± SD, triplicate
T2 construct: purchased
Protocol: as §2
Initially, 200 µL of the samples were mixed with 100 µL of 0.1 M SPB (pH = 6.7) containing 0.1 U/mL of α-glucosidase enzyme. The mixture was then incubated at 37 °C for ten minutes. One milligram of pNPG was dissolved in 0.1 ml of SPB (pH = 6.7). The activity of α-glucosidase was assessed by measuring the absorbance at 405 nm following the addition of 1 mL of 0.1 M Na2CO3 to the reaction mixture.

elastase [7] = molecular target: T3, elastase (Sus scrofa, UniProt P00772); assay: Elastase inhibitory assay; assay type: biochemical
Protocol: By adapting certain aspects, the methodology of this research is based on the protocol reported by Jeddi et al. (Jeddi et al. [2023]).
Then, 200 µL of an elastase solution prepared in Tris–HCl buffer (0.2 M, pH 8.0) was mixed with 50 µL of each sample. Following a 15-min incubation at 25 °C, 200 µL of N-succinyl-Ala-Ala-p-nitroanilide solution was added, and the reaction mixtures were homogenized. Absorbances were recorded at 410 nm after an additional 20-min incubation at 25 °C. […] Furthermore, the methodology described in this study should provide a valuable resource for future research assessing the effect of other natural compounds on elastase activity, thereby expanding our understanding of their beneficial properties.

[8] = system: methicillin resistant Staphylococcus aureus (MRSA); set-up: method as in Zhao et al. [2023b]; settings: ref Zhao et al. [2023b]; cited from earlier work
S. aureus [9] = system: S. aureus; set-up: method as in Sonboli et al. ([2006]); settings: ref Sonboli et al. ([2006]); cited from earlier work
S. epidermidis = system: S. epidermidis; set-up: method as in Sonboli et al. ([2006]); settings: ref Sonboli et al. ([2006]); cited from earlier work
[10] = system: P. aeruginosa, S. aureus, and K. pneumoniae; set-up: method as in Amalich et al. [2016]; settings: ref Amalich et al. [2016]; cited from earlier work
S. maltophilia = system: S. maltophilia; set-up: method as in Baygar ([2019]); settings: ref Baygar ([2019]); cited from earlier work
[11] = system: Streptococcus equi subsp. equi; set-up: method as in Nozohour and Jalilzadeh-amin [2021]; settings: ref Nozohour and Jalilzadeh-amin [2021]; cited from earlier work
E. coli K1 = system: E. coli K1; set-up: method as in Gong et al. [2021]; settings: ref Gong et al. [2021], cited from earlier work
S. aureus [12] = system: S. aureus; set-up: method as in Farhanghi et al. [2022]; settings: ref Farhanghi et al. [2022]; cited from earlier work
[13] = set-up: method as in Luís and Domingues [2021]; settings: ref Luís and Domingues [2021]; cited from earlier work
tyrosinase = tyrosinase (Agaricus bisporus, UniProt C7FF04); set-up: method as in our previous study; settings: ref our previous study; cited from earlier work
elastase [14] = molecular target: T3, elastase; set-up: method as in our previous study; settings: ref our previous study, cited from earlier work
α-amylase = molecular target: α-amylase; set-up: method as in Omari et al. [2023]; settings: ref Omari et al. [2023]; cited from earlier work
α-glucosidase = molecular target: α-glucosidase; set-up: method as in Omari et al. [2023]; settings: ref Omari et al. [2023]; cited from earlier work
[15] = ATCC25922, broth microdilution, read-out: MIC Escherichia coli
[16] = 24 h, 37 °C, read-out: MBC Listeria monocytogenes
[17] = ATCC13932, broth microdilution, read-out: MIC Listeria monocytogenes
[18] = ATCC27853, broth microdilution, read-out: MIC Pseudomonas aeruginosa
[19] = 24 h, 37 °C, read-out: MBC Staphylococcus aureus
[20] = ATCC29213, broth microdilution, read-out: MIC Staphylococcus aureus

T3 sequence (P00772 27-266): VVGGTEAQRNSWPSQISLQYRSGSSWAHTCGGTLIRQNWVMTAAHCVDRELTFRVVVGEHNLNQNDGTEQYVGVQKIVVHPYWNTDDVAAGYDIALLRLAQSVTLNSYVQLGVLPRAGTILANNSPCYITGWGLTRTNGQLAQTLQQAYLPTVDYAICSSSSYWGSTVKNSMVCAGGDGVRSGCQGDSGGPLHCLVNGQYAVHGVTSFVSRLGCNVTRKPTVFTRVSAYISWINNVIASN
T2 sequence (P53341 whole entry): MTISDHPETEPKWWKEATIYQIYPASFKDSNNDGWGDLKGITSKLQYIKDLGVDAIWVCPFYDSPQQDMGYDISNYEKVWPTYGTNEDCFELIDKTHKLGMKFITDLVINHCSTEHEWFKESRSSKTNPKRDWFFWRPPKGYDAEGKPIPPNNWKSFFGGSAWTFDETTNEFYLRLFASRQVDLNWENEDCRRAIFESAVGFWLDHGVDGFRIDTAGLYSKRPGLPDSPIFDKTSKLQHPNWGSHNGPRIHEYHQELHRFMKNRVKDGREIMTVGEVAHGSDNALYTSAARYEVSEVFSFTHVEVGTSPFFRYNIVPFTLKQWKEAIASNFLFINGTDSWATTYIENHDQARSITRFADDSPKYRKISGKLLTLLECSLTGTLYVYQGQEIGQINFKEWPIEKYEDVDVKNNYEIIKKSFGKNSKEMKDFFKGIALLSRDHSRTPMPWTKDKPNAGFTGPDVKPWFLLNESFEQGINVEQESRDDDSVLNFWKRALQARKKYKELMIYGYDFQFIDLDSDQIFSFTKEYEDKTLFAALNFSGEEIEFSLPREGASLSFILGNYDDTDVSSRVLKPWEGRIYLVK
T1 sequence (P06278 30-512): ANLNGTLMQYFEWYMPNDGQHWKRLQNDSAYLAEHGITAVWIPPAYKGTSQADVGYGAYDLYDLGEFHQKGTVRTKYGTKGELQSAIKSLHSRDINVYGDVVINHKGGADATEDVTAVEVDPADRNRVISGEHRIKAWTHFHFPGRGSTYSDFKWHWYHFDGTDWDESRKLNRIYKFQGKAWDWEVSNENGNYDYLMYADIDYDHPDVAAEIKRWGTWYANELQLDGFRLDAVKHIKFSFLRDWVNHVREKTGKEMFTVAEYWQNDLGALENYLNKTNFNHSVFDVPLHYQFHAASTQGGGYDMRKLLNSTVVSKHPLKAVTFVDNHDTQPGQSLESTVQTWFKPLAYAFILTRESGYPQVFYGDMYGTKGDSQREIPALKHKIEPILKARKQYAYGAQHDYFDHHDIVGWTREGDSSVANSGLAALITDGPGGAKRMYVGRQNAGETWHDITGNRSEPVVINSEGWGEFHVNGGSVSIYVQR
Chain of tyrosinase (C7FF04 1-392): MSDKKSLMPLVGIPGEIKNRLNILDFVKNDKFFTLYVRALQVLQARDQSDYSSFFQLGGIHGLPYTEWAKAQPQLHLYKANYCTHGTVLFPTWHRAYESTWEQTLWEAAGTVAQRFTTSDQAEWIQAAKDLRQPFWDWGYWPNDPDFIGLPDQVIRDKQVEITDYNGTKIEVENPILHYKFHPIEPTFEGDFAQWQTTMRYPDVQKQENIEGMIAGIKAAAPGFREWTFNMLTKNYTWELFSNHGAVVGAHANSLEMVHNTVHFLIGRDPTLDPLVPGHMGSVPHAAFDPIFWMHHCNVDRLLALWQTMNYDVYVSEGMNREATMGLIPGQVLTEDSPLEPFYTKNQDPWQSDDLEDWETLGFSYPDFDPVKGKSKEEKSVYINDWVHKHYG

Work on O=C(N[C@H](CO)[C@H](O)c1ccc([N+](=O)[O-])cc1)C(Cl)Cl [Chloramphenicol, reference compound] yielded an MBC ([1]; 37 °C) of 32 µg/mL (≈ 99 µM), an MIC [1, 15] of 8 µg/mL (≈ 24.8 µM) and an MBC [2, 16] of 32 µg/mL (≈ 99 µM). For the same compound, the MIC [2, 17] was 16 µg/mL (≈ 49.5 µM), the MBC ([3]; 37 °C) was 64 µg/mL (≈ 198 µM) and the MIC [3, 18] was 64 µg/mL (≈ 198 µM). The MBC [4, 19] was 32 µg/mL (≈ 99 µM) and the MIC [4, 20] was 8 µg/mL (≈ 24.8 µM).

Compound CC(C)[C@@H]1CC[C@@H](C)CC1=O [Menthone, menthone] has an IC50 [5] of 968 µM, an IC50 [6] of 703 µM and an IC50 (elastase [7]) of 860 µM. The MBC ([1]; 37 °C) was > 2 µg/mL, the MIC [1, 15] was 1 µg/mL (≈ 6.48 µM) and the “MBC Listeria monocytogenes” value ([2]; 24 h, 37 °C) was 0.25 µg/mL (≈ 1.62 µM). The MBC [2, 16] was 0.125 to 0.25 µg/mL (≈ 0.81 to 1.62 µM), the MIC [2, 17] was 0.125 to 0.25 µg/mL (≈ 0.81 to 1.62 µM) and the “MIC Listeria monocytogenes” value [2] was 0.125 µg/mL (≈ 0.81 µM). For the same compound, the MBC ([3]; 37 °C) was 1 µg/mL (≈ 6.48 µM), the MIC [3, 18] was 0.5 µg/mL (≈ 3.24 µM) and the “MBC Staphylococcus aureus” value ([4]; 24 h, 37 °C) was 0.125 µg/mL (≈ 0.81 µM). The MBC [4, 19] was 0.125 to 0.25 µg/mL (≈ 0.81 to 1.62 µM), the MIC [4, 20] was 0.125 to 0.25 µg/mL (≈ 0.81 to 1.62 µM) and the “MIC Staphylococcus aureus” value [4] was 0.125 µg/mL (≈ 0.81 µM). The “MBC MRSA” value [8] was 7.1 µg/mL (≈ 46 µM) and the “MIC MRSA” value [8] was 3.5 µg/mL (≈ 22.7 µM).

CC(C)=C1CC[C@@H](C)CC1=O [Pulegone, pulegone] gave an IC50 [5] of 1200 µM, an IC50 [6] of 783 µM and an IC50 (elastase [7]) of 774 µM. For the same compound, the MBC [1] was 0.5 µg/mL (≈ 3.28 µM), the MIC ([1]; ATCC25922, read-out: MIC Escherichia coli) was 0.25 µg/mL (≈ 1.64 µM) and the “MBC Listeria monocytogenes” value ([2]; 24 h, 37 °C) was 0.125 µg/mL (≈ 0.821 µM). The MBC ([2]; read-out: MBC Listeria monocytogenes, 24 h, 37 °C) was 0.125 to 0.25 µg/mL (≈ 0.821 to 1.64 µM), the MIC ([2]; ATCC13932, read-out: MIC Listeria monocytogenes, broth microdilution) was 0.125 to 0.25 µg/mL (≈ 0.821 to 1.64 µM) and the “MIC Listeria monocytogenes” value [2] was 0.125 µg/mL (≈ 0.821 µM). The MBC [3] was 0.5 µg/mL (≈ 3.28 µM), the MIC ([3]; ATCC27853, read-out: MIC Pseudomonas aeruginosa) was 0.5 µg/mL (≈ 3.28 µM) and the “MBC Staphylococcus aureus” value ([4]; 24 h, 37 °C) was 0.25 µg/mL (≈ 1.64 µM). The MBC ([4]; read-out: MBC Staphylococcus aureus, 24 h, 37 °C) was 0.125 to 0.25 µg/mL (≈ 0.821 to 1.64 µM), the MIC ([4]; ATCC29213, read-out: MIC Staphylococcus aureus, broth microdilution) was 0.125 to 0.25 µg/mL (≈ 0.821 to 1.64 µM) and the “MIC Staphylococcus aureus” value [4] was 0.125 µg/mL (≈ 0.821 µM). For the same compound, the “activity against S. aureus” value (S. aureus [9]) was 1.8 ± 0.3 mg/mL, the “activity against S. epidermidis” value (S. epidermidis) was 1.8 ± 0.3 mg/mL and the “inhibitory effects on P. aeruginosa, S. aureus, and K. pneumoniae” value [10] was 2.80–11.20 µl/mL. The “MBC S. maltophilia” value (S. maltophilia) was 5000 µg/mL (≈ 32800 µM), the “MIC S. maltophilia” value (S. maltophilia) was 2500 µg/mL (≈ 16400 µM) and the “inhibition zone S. maltophilia” value (S. maltophilia) was 28 mm. For the same compound, the “inhibition zone Streptococcus equi subsp. equi” value [11] was 20 mm, the reduced biofilm formation (E. coli K1; E. coli K1) was 52.36% and the “MBC E. coli K1” value (E. coli K1) was 47350 µg/mL (≈ 311000 µM). For the same compound, the “MIC E. coli K1” value (E. coli K1) was 23680 µg/mL (≈ 156000 µM) and the “MIC S. aureus” value (S. aureus [12]) was 5.85 μl/mL.

In the case of CC(=O)Oc1ccccc1C(=O)O [acetylsalicylic acid], the “IC50 inhibition of protein denaturation” value [13] is listed as 89.47 ± 2.64 %, v/v.

For CC12CCC(CC1)C(C)(C)O2 [eucalyptol, reference compound], the “MIC S. aureus” value (S. aureus [12]) is given as 23.43 μl/mL.

In the case of C=C(C)[C@H]1CC=C(C)CC1 [limonene], the IC50 anti-tyrosinase (tyrosinase) is listed as 74.24 ± 2.06 µg/mL (≈ 545 µM) and the IC50 anti-elastase (elastase [14]) is listed as 91.25 ± 3.06 µg/mL (≈ 670 µM).

In the case of CC1=CCC2CC1C2(C)C (stereo not drawn) [α-pinene], the “IC50 α-amylase” value (α-amylase) is given as 82.12 ± 4.52 µg/mL (≈ 603 µM), the “IC50 α-glucosidase” value (α-glucosidase) is given as 95.62 ± 4.11 µg/mL (≈ 702 µM) and the IC50 (elastase [14]; read-out: IC50 anti-elastase (converted)) is given as 471 µM.
